Data published in patent publication US6365626B1, “BTK inhibitors and methods for their identification and use” (Parker Hughes Institute, priority 1998, dated 2002).

Molecular target: T1, BTK (Homo sapiens, UniProt Q06187)
T1 construct: expressed in transfected cells
Assay: BTK inhibition assay of second generation LFM analogs
Assay type: biochemical
Conditions: Table 4

T1 sequence (Q06187 2-659): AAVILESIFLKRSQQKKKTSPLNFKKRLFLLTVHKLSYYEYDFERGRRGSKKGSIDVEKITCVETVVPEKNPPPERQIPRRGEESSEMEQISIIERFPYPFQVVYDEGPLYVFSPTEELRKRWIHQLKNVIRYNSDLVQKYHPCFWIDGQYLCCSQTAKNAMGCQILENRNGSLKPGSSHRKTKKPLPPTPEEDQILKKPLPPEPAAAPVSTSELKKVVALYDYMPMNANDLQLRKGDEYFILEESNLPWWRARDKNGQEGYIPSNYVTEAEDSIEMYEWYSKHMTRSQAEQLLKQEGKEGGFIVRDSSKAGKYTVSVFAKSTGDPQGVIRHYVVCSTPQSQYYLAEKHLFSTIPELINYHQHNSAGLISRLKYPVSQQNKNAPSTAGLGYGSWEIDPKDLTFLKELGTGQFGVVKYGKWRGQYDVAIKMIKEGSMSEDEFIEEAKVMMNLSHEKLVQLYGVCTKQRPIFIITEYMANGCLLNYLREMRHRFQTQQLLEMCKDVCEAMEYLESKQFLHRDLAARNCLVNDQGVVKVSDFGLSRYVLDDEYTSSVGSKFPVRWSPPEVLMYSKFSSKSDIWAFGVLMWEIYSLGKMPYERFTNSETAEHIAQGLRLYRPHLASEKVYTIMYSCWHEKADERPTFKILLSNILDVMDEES

IC50: 37 µM
Structure (SMILES): CC(O)=C(C#N)C(=O)Nc1ccc(Cl)cc1Cl [LFM-A20, α-Cyano-β-hydroxy-β-methyl-N-(2,4-dichlorophenyl)propenamide]
